The source of these data is US9388164B2, “Methods of using pyruvate kinase activators” (AGIOS PHARMACEUTICALS, INC, priority 2011, dated 2016).

Format in all cases: biochemical
For assay [1], the target named is wild type PKR (Homo sapiens, UniProt P30613). The assay can be described thus: PKR assay, AC50 (wild type). As to conditions: read-out: PKR WT AC50. On the procedure: (§1) • PKR or PKR mutant enzyme solution was diluted in assay buffer. • 2 μL of test compound was added into wells first, and then 180 μL reaction mix was added. • Reactions mixture with test compound was assembled except for ADP, and plates were stored for 60 minutes at room temperature. • 20 uL ADP was added to start reaction at room temperature and reaction progress was measured as changes in absorbance at 340 nm wavelength at room temperature.
(§2) Test Compound Preparation: • Test compound stock was made at 100× concentration in 100% DMSO (10 mM) • 1 to 3 dilutions were made for 11 points (i.e. 50 μl of first concentration added to 100 μl 100% DMSO to yield 3.33 mM, 50 μl of this added to 100 μl DMSO to yield 1.11 mM, and so forth) • 1 to 100 dilution into assay (2 μl in 200 μl) yielded starting concentration of 100 μM, decreasing 3 fold for 11 points.

The target of assay [2] is T1, PKR R532W (Homo sapiens, UniProt P30613, R532W). The assay can be described thus: PKR R532W Single Point Percent Activation Assay. Conditions: compound at 1 μM; for activation at 1 µM: read-out: % Act. R532W. The procedure: PKR R532W Single Point Percent Activation Assay
(§3) A compound described herein was diluted with DMSO and tested at 1 μM concentration. The enzyme was diluted in 1× Buffer: (100 mM KCl, 50 mM Tris 7.5, 5 mM MgCl2, 1 mM DTT, 0.03% BSA). 2 μL of compound solution was first added into wells, and then 180 μL of enzyme solution was added. Assays were assembled except for ADP, and plates were stored for 60 minutes at RT. 20 μL ADP was added to start the assay and assay output was evaluated using OD340 at SpectraMax. The assay was run at room temperature.
PKR R532W (100 ng/well), Tris pH 7.5 (50 mM), KCl (100 mM), MgCl2 (5 mM), ADP (0.36 mM), PEP (0.1 mM), NADH (180 μM), LDH (0.5 units, Sigma 59023), DTT (1 mM) and BSA (0.03%).

In assay [3] the target is PKR wt (Homo sapiens, UniProt P30613). The assay can be described thus: PKR WT Single Point Percent Activation Assay. As to conditions: compound at 1 μM. The procedure: PKR WT Single Point Percent Activation Assay
as §3
PKR wt (100 ng/well), Tris pH 7.5 (50 mM), KCl (100 mM), MgCl2 (5 mM), ADP (0.48 mM), PEP (0.15 mM), NADH (180 μM), LDH (0.5 units, Sigma 59023), DTT (1 mM) and BSA (0.03%).

Assay [4] has as its target T2, PKR T384W (Homo sapiens, UniProt P30613). The assay can be described thus: PKR T384W Single Point Percent Activation Assay. Conditions: compound at 1 μM. The procedure: PKR T384W Single Point Percent Activation Assay
A compound described herein was diluted with DMSO and tested at 1 μM concentration. The enzyme was diluted in 1× Buffer: (100 mM KCl, 50 mM Tris 7.5, 5 mM MgCl2, 1 mM DTT, 0.03% BSA). 2 μL of compound solution was first added into wells, and then 180 μL enzyme solution was added. Assays were assembled except for ADP, and plates were stored for 60 minutes at RT. 20 μL ADP was added to start the assay and assay output was evaluated using OD340 at SpectraMax. The assay was run at room temperature.
PKR T384W soluble (300 ng/well), Tris pH 7.5 (50 mM), KCl (100 mM), MgCl2 (5 mM), ADP (0.08 mM), PEP (0.23 mM), NADH (180 μM), LDH (0.5 units, Sigma 59023), DTT (1 mM) and BSA (0.03%).

Assay [5] addresses T3, PKR R510Q (Homo sapiens, UniProt P30613, R510Q). The assay can be described thus: PKR R510Q Single Point Percent Activation Assay. As to conditions: compound at 1 μM; for activation at 1 µM: read-out: % Act. R510Q. The procedure: PKR R510Q Single Point Percent Activation Assay
as §3
PKR R510Q (40 ng/well), Tris pH 7.5 (50 mM), KCl (100 mM), MgCl2 (5 mM), ADP (0.2 mM), PEP (0.11 mM), NADH (180 μM), LDH (0.5 units, Sigma 59023), DTT (1 mM) and BSA (0.03%).

In assay [6] the target is T2, PKR T384W. The assay can be described thus: PKR Mutant Assay, AC50 (T384W). The procedure:
as §1, §2

The target in assay [7] is T1, PKR R532W. The assay can be described thus: PKR Mutant Assay, AC50 (R532W). The procedure:
as §1, §2

Assay [8] concerns the target T3, PKR R510Q. The assay can be described thus: PKR Mutant Assay, AC50 (R510Q). The procedure:
as §1, §2

The target in assay [9] is PKR R479H (Homo sapiens, UniProt P30613, R479H). The assay can be described thus: PKR Mutant Assay, AC50 (R479H). The procedure:
as §1, §2

Assay [10] concerns the target PKR G364D (Homo sapiens, UniProt P30613, G364D). The assay can be described thus: PKR Mutant Assay, AC50 (G364D). On the procedure:
as §1, §2

Broadly, the AC50 is the midpoint of the concentration-response curve, whichever way the signal moves.

Sequence of wild type PKR (P30613 whole entry): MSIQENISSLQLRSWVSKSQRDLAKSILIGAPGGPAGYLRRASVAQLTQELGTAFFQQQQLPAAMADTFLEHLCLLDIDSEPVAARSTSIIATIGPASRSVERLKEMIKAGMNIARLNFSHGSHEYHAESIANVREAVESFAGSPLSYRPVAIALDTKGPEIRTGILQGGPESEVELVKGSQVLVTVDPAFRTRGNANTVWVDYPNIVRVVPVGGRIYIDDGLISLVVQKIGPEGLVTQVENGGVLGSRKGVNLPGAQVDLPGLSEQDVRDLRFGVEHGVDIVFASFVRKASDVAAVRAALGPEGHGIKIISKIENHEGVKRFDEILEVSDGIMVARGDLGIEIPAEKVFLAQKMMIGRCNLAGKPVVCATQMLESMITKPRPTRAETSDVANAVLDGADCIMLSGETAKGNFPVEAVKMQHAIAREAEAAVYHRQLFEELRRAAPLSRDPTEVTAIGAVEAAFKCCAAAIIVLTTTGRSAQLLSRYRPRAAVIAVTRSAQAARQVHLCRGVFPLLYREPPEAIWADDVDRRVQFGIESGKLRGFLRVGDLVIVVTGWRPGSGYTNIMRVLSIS
Sequence of PKR wt (P30613 whole entry): as above
T2 sequence (P30613 whole entry T384M): as the sequence (P30613 whole entry) above, with T384M counted along it
T1 sequence (P30613 whole entry R532W): as the sequence (P30613 whole entry) above, with R532W counted along it
T3 sequence (P30613 whole entry R510Q): as the sequence (P30613 whole entry) above, with R510Q counted along it
Sequence of PKR R479H (P30613 whole entry R479H): as the sequence (P30613 whole entry) above, with R479H counted along it
Sequence of PKR G364D (P30613 whole entry G364D): as the sequence (P30613 whole entry) above, with G364D counted along it

Regarding `O=C(c1ccc(NS(=O)(=O)c2cccc3cccnc23)cc1)N1CC(Oc2ccccc2)C1` [drawing 4], in [1], the AC50 lay in the range of 101 to 500 nM. The activation at 1 µM in [2], in [3] and in assay [5] was 101 to 500% each time. Besides, the “% Act. T384W” value in assay [4] is “B (a % activation at 1 μM of from 101 to 500)”.
As to `O=C(c1ccc(NS(=O)(=O)c2cccc3cccnc23)cc1)N1CC(O)(Cc2ccccc2)C1` [drawing 5], the AC50 in assay [1] is < 100 nM. In addition, the activation at 1 µM in [2], in [3] and in [5] was 101 to 500% throughout. In addition, the “% Act. T384W” value in assay [4] was “B (a % activation at 1 μM of from 101 to 500)”.
Regarding `Cc1cc(C(=O)N2CC(NC(=O)c3ccccn3)C2)ccc1NS(=O)(=O)c1cccc2cccnc12` [drawing 7], the AC50 in [1] lay in the range of 101 to 500 nM. Also, the activation at 1 µM lay in the range of 1 to 100% in [2], 101 to 500% in [3] and 101 to 500% in assay [5]. Besides, the “% Act. T384W” value in assay [4] is reported as “B (a % activation at 1 μM of from 101 to 500)”.
As to `Cc1cc(C(=O)N2CC(Oc3ccccc3)C2)ccc1NS(=O)(=O)c1cccc2cccnc12` [drawing 10], the AC50 in [1] is < 100 nM. Moreover, the activation at 1 µM in [2] fell in the range of 1 to 100%; in [3], 1 to 100%; in assay [5], 101 to 500%. The “% Act. T384W” value in [4] is reported as “A (a % activation at 1 μM of from 1 to 100)”.
As for `O=C(c1ccc(NS(=O)(=O)c2cccc3cccnc23)cc1)N1CC(OCc2ccccc2)C1` [drawing 12], the AC50 in assay [1] was 101 to 500 nM. Also, the activation at 1 µM in assay [2], in [3] and in assay [5] was 101 to 500% each time. Further, the “% Act. T384W” value in assay [4] is listed as “B (a % activation at 1 μM of from 101 to 500)”.
As for `O=C(NC1CN(C(=O)c2ccc(NS(=O)(=O)c3cccc4cccnc34)cc2)C1)c1ccccn1` [drawing 15], the AC50 in assay [1] was > 500 nM. Besides, in assay [2], the “% Act. R532W” value is “B (a % activation at 1 μM of from 101 to 500)”. For the same compound, the “Act. % WT” value in assay [3] is on record as “B (a % activation at 1 μM of from 101 to 500)”. Besides, in assay [4], the “% Act. T384W” value is “B (a % activation at 1 μM of from 101 to 500)”. Further, the “% Act. R510Q” value in assay [5] was “B (a % activation at 1 μM of from 101 to 500)”.
Consider `COc1ccccc1N(C)C1CN(C(=O)c2ccc(NS(=O)(=O)c3cccc4cccnc34)cc2)C1` [drawing 21], for which, in [2], the “% Act. R532W” value was “B (a % activation at 1 μM of from 101 to 500)”. For the same compound, the activation at 1 µM in assay [3] and in assay [5] was 101 to 500% in each case. In assay [4], the “% Act. T384W” value is given as “A (a % activation at 1 μM of from 1 to 100)”.
Consider `O=C(c1ccc(NS(=O)(=O)c2cccc3cccnc23)c(F)c1)N1CC(Nc2ccccc2)C1` [drawing 22], for which the AC50 in [1] was > 500 nM. Also, the activation at 1 µM in assay [2], in assay [3] and in assay [5] was 101 to 500% each time. In [4], the “% Act. T384W” value was “B (a % activation at 1 μM of from 101 to 500)”.
Turning to `COc1ccccc1N(C)C1CN(C(=O)c2ccc(NS(=O)(=O)c3cccc4cccnc34)cc2)C1` [drawing 32], in assay [2], the “% Act. R532W” value is on record as “A (a % activation at 1 μM of from 1 to 100)”. Also, in assay [3], the “Act. % WT” value is “B (a % activation at 1 μM of from 101 to 500)”. Besides, the “% Act. T384W” value in [4] was “B (a % activation at 1 μM of from 101 to 500)”. Besides, the “% Act. R510Q” value in assay [5] was “B (a % activation at 1 μM of from 101 to 500)”.
For the compound `O=C(c1ccc(NS(=O)(=O)c2cccc3cccnc23)cc1)N1CC(O)(c2ccccc2)C1` [drawing 40], the AC50 in assay [1] is 101 to 500 nM. In addition, the activation at 1 µM in assay [2], in assay [3] and in [5] was 101 to 500% in each case. The “% Act. T384W” value in [4] is “B (a % activation at 1 μM of from 101 to 500)”.
On to `Cc1cc(C(=O)N2CC(Nc3ccccn3)C2)ccc1NS(=O)(=O)c1cccc2cccnc12` [drawing 55], for which the activation at 1 µM in [2], in assay [3] and in [5] was 1 to 100% each time. In addition, the “% Act. T384W” value in assay [4] is on record as “B (a % activation at 1 μM of from 101 to 500)”.
`COc1ccccc1OC1CN(C(=O)c2ccc(NS(=O)(=O)c3cccc4cccnc34)c(C)c2)C1` [drawing 63]: the half-maximal activity concentration (AC50) in [1] is < 100 nM. Also, the activation at 1 µM in assay [2], in [3] and in [5] was 101 to 500% each time. Besides, the “% Act. T384W” value in assay [4] is “A (a % activation at 1 μM of from 1 to 100)”.
Take `O=C(Nc1ccccn1)OC1CN(C(=O)c2ccc(NS(=O)(=O)c3cccc4cccnc34)cc2)C1` [drawing 65]: the activation at 1 µM in [2], in assay [3] and in [5] was 101 to 500% each time. For the same compound, in assay [4], the “% Act. T384W” value is reported as “B (a % activation at 1 μM of from 101 to 500)”.
With `O=C(c1ccc(NS(=O)(=O)c2cccc3cccnc23)cc1)N1CC(Oc2ccccc2)C1` [drawing 70], the half-maximal activity concentration (AC50) in assay [6] was 101 to 500 nM; in assay [7], < 100 nM; in [8] it was > 500 nM.
With `O=C(c1ccc(NS(=O)(=O)c2cccc3cccnc23)cc1)N1CC(O)(Cc2ccccc2)C1` [drawing 71], the AC50 in assay [9] was < 100 nM; in assay [10], 101 to 500 nM; in assay [6], < 100 nM; in assay [7] it was < 100 nM; in assay [8], 101 to 500 nM.
For `Cc1cc(C(=O)N2CC(NC(=O)c3ccccn3)C2)ccc1NS(=O)(=O)c1cccc2cccnc12` [drawing 73], the values for the AC50 in assay [6], in assay [7] and in assay [8] were 101 to 500 nM, 101 to 500 nM and > 500 nM, respectively.
For `Cc1cc(C(=O)N2CC(Oc3ccccc3)C2)ccc1NS(=O)(=O)c1cccc2cccnc12` [drawing 76], the figures for the AC50 in assay [6], in assay [7] and in [8] were < 100 nM, < 100 nM and 101 to 500 nM, respectively.
For `O=C(c1ccc(NS(=O)(=O)c2cccc3cccnc23)cc1)N1CC(OCc2ccccc2)C1` [drawing 78], the AC50 in assay [6] and in assay [7] was 101 to 500 nM throughout.
With `O=C(NC1CN(C(=O)c2ccc(NS(=O)(=O)c3cccc4cccnc34)cc2)C1)c1ccccn1` [drawing 81], the AC50 in [6] and in [7] was > 500 nM each time.
As for `O=C(c1ccc(NS(=O)(=O)c2cccc3cccnc23)c(F)c1)N1CC(Nc2ccccc2)C1` [drawing 88], the concentration at half-maximal activity (AC50) in assay [6], in [7] and in assay [8] was > 500 nM throughout.
`Cc1cc(C(=O)N2CC(Nc3ccccn3)C2)ccc1NS(=O)(=O)c1cccc2cccnc12` [drawing 121] yielded an AC50 in assay [8] of 101 to 500 nM.
For `COc1ccccc1OC1CN(C(=O)c2ccc(NS(=O)(=O)c3cccc4cccnc34)c(C)c2)C1` [drawing 129], the AC50 in [6] is < 100 nM; in [7] it was < 100 nM; in assay [8], > 500 nM.
As to `O=C(Nc1ccccn1)OC1CN(C(=O)c2ccc(NS(=O)(=O)c3cccc4cccnc34)cc2)C1` [drawing 131], in assay [8], the AC50 was > 500 nM.
